Measured values: the SangsterLogP compilation

Experiments:
[1] = method code SF-GLC, from Hashimoto, S.; Schneider, S.; Yamamoto, T.; Morita, M. (1994). Aqueous solubility and octanol-water partition coefficient of 3,3',4,4'-tetrachloroazobenzene. 20, 125-128.
[2] = method code SF-AS, from DOI: 10.5012/bkcs.2007.28.7.1183
[3] = not given; remark: listed apart in the source
[4] = not given; remark: listed apart in the source
[5] = method code SF-GLC, from DOI: 10.1016/s0380-1330(82)71969-0
[6] = not given; remark: listed apart in the source
[7] = method code SF-AS, from DOI: 10.1016/0014-5793(79)80862-5, PMID: 478007
[8] = method code SF-HPLC, from DOI: 10.1016/j.ejmech.2008.06.022, PMID: 18687506; details: pH 7.4
[9] = from Tomlinson, E.; Davis, S.; Parr, G.; James, M.; Farraj, N.; Kinkel, J.; Gaisser, D.; Wynne, H. (1986). The filter-probe extractor: a versatile tool for the rapid determination of solute oil/water …
[10] = not given; remark: listed apart in the source
[11] = not given; remark: listed apart in the source
[12] = not given; remark: listed apart in the source
[13] = method code SF-RC, from DOI: 10.1016/j.bmc.2005.04.014, PMID: 15911305; details: pH 7.4
[14] = method code SF-RC, from DOI: 10.1111/j.1399-3054.1990.tb08712.x
[15] = method code SF, from DOI: 10.1021/jm00151a007, PMID: 3941412; details: pH 9.0
[16] = not given; remark: listed apart in the source
[17] = not given; remark: listed apart in the source
[18] = method code SF-HPLC, from DOI: 10.1002/ps.2780170106; details: pH 2.0
[19] = not given; remark: listed apart in the source
[20] = not given; remark: listed apart in the source
[21] = not given; remark: listed apart in the source
[22] = not given; remark: listed apart in the source
[23] = method code SF-EIA, from DOI: 10.1016/j.carres.2004.12.038, PMID: 15797137
[24] = method code SF-HPLC, from DOI: 10.1016/0378-5173(95)00102-o
[25] = method code SF-HPLC, from DOI: 10.1002/ps.2780440103; details: pH 2.0
[26] = not given; remark: listed apart in the source
[27] = not given; remark: listed apart in the source
[28] = method code SF, from DOI: 10.1002/ps.2780290303; details: pH 5.0
[29] = method code SF-RC, from DOI: 10.1016/j.nucmedbio.2008.01.001, PMID: 18355684; details: pH 7.4
[30] = method code SF-AS, from PMID: 1042; details: pH 7.4
[31] = method code SF-AS, from PMID: 582409; details: pH 7.4
[32] = not given; remark: listed apart in the source
[33] = not given; remark: listed apart in the source
[34] = method code SF-AS, from PMID: 578762; details: pH 7.4
[35] = method code SF-RC, from DOI: 10.1021/jf60204a016
[36] = method code G-GLC, from DOI: 10.1021/es00171a006
[37] = method code SF, from DOI: 10.1016/0223-5234(94)90060-4; details: pH 7.4
[38] = method code SF-AS, from PMID: 7646571; details: pH 7.0
[39] = method code SF, from DOI: 10.1016/s0223-5234(98)80007-x
[40] = pH 9.2
[41] = method code SF-AS, from DOI: 10.1016/0891-5849(92)90146-8, PMID: 1334029; details: pH 2.0
[42] = method code SF, from PMID: 7412765; details: pH 7.0
[43] = method code SF, from DOI: 10.1021/jf60167a006
[44] = not given; remark: listed apart in the source
[45] = method code SF-AS, from DOI: 10.1016/j.ejmech.2007.07.011, PMID: 17869385; details: pH 7.4
[46] = method code SF-AS, from DOI: 10.1111/j.2042-7158.1988.tb06996.x, PMID: 2907534; details: pH 7.0
[47] = method code SF-F, from DOI: 10.1021/js950367f, PMID: 8901074
[48] = method code SF, from DOI: 10.1021/jm00114a024, PMID: 1920362
[49] = method code SF, from DOI: 10.1016/0304-4165(80)90351-7, PMID: 6243999; details: pH 7.4
[50] = from Gehmann, K., Nyfeler, R., Leadbeater, A. J., Nevill, D. J., & Sozzi, D. (1990). CGA 173506: A new phenylpyrrole fungicide for broad-spectrum disease control. In Brighton Crop Protection Conference, …

O=[N+]([O-])c1nccn1CC(O)COc1ccccc1 (stereo unspecified)
logP: 1.4

Clc1ccc(/N=N/c2ccc(Cl)c(Cl)c2)cc1Cl
logP [1]: 5.53

Cc1cc(C)nc(NS(=O)(=O)c2ccc(N)cc2)n1
logP [2]: 0.21

COc1ccc(Cc2cnc(N)nc2N)cc1Cl
logP [3]: 1.65

CC1=C(C)C(O)N(c2ccccc2)C1=O (stereo unspecified)
logP [4]: 1.63

Clc1cc(-c2ccccc2)c(Cl)c(Cl)c1Cl
logP [5]: 5.9

CCNc1nc(NC(C)C(C)C)nc(SC)n1 (stereo unspecified)
logP [6]: 3.76

C#CC(C)N(C)C(=O)Nc1ccc(Cl)cc1 (stereo unspecified)
logP [7]: 3

CC(=O)NCC(=O)NN=Nc1ccc(C#N)cc1
logD [8]: 1.1

CNC(=O)[C@H](Cc1ccccc1)NC(C)=O
logP [9]: 0.5

c1nnnn1C12CC3CC(CC(C3)C1)C2
logP [10]: 2.95

CCCCCOc1ccc(O)cc1
logP [11]: 3.26

CNC(=O)OCc1nc(SC)n(C)c1COC(=O)NC
logP [12]: 0.74

Nc1nc(OCc2cccc(I)c2)c2nc[nH]c2n1
logD [13]: 2.2

O=C(O)Cc1cccc2ccccc12
logP [14]: 2.24

CNc1c(NCCSCc2nc[nH]c2C)c(=O)c1=O
logD [15]: -0.08

CCC(O)(CCC(N)=O)c1ccccc1 (stereo unspecified)
logP [16]: 2.11

CCc1cccc2ccccc12
logP [17]: 4.38

O=C(O)COc1cccc2ccccc12
logD [18]: 2.6

CN1C(=O)NC(=O)C(C)(C2=CCCCC2)C1=O (stereo unspecified)
logP [19]: 1.71

Cc1cccc2cccc(C)c12
logP [20]: 4.26

Nc1nc(N)c2nc(-c3ccccc3)c(N)nc2n1
logP [21]: 1.24

CCCCCOC(=O)c1ccc(O)cc1
logP [22]: 3.65

OC[C@H]1O[C@H](O[C@H]2O[C@H](CO)[C@@H](O)[C@H](O)[C@H]2O)[C@H](O)[C@@H](O)[C@@H]1O
logP [23]: -3.76

CCCCCCOC(=O)c1cccnc1
logP [24]: 3.51

O=C(O)[C@H]1O[C@@H](Oc2ccc([N+](=O)[O-])cc2)[C@H](O)[C@@H](O)[C@@H]1O
logD [25]: -0.75

CC1(C)NC(=O)N(c2ccc([N+](=O)[O-])c(C(F)(F)F)c2)C1=O
logP [26]: 2.31

Clc1cc(Cl)c(-c2cc(Cl)c(Cl)cc2Cl)cc1Cl
logP [27]: 6.67

COC(=O)c1sccc1S(=O)(=O)NC(=O)Nc1nc(OC)nc(OC)n1
logD [28]: 0.52

CCCSc1nsnc1C1=CCCN(C)C1
logD [29]: 2.9

CCCCOc1ccc(CC(=O)NO)cc1
logD [30]: 2.08

Nc1nc(N)c2nc(-c3ccc(O)cc3)c(N)nc2n1
logD [31]: 0.92

CCC(N)C(=O)Nc1c(C)cccc1C (stereo unspecified)
logP [32]: 0.84

O=C(O)CCCn1c(=O)oc2ccccc2c1=O
logP [33]: 0.2

CCOC(=O)/C=C1\SC(N2CCCC2)C(=O)N1C (stereo unspecified)
logD [34]: 2

CC(C)c1onc2nc(C(C)(C)C)[nH]c(=O)c12
logP [35]: 2.34

Clc1c(Cl)c(Cl)c2c(oc3c(Cl)c(Cl)c(Cl)c(Cl)c32)c1Cl
logP [36]: 7.59

CC(=O)Nc1ccn(C2CSC(COC(C)=O)O2)c(=O)n1 (stereo unspecified)
logD [37]: 0.88

Cn1c(=O)[nH]c2ncn(CC(C)(C)C)c2c1=O
logD [38]: 0.6

Cc1nc2n(c1C)CNc1ccccc1-2
logP [39]: 2.07

CC(C)CNCNC(=O)c1ccccc1
logD [40]: 1.73

CC(=O)C(=Cc1cc(O)c(O)c([N+](=O)[O-])c1)C(C)=O
logD [41]: 1.21

CCCC(C)C1(CC)C(=O)NC(=O)NC1=O (stereo unspecified)
logD [42]: 1.75

CCOP(=O)(OCC)Oc1ccc(S(C)(=O)=O)cc1
logP [43]: 0

Clc1cc2c(oc3c(Cl)c(Cl)c(Cl)cc32)c(Cl)c1Cl
logP [44]: 6.6

Cc1c(O)c(=O)ccn1CCCn1ccnc1
logD [45]: -0.46

CCC1(c2ccccc2)C(=O)NC(=O)NC1=O
logD [46]: 1.32

COc1c2ccoc2cc2oc(=O)ccc12
logP [47]: 2

CN(CCN)S(=O)(=O)c1ccc(C(C)(C)[N+](=O)[O-])c([N+](=O)[O-])c1
logP [48]: 0.62

CC(=O)NC1CC(C)(C)N(O)C(C)(C)C1
logD [49]: 0.52

N#Cc1c[nH]cc1-c1cccc2c1OC(F)(F)O2
logP [50]: 2.6
